The values below are quoted from earlier work in patent publication US8644910B2, “Imaging protocols” (Biosensors International Group, Ltd., priority 2005, dated 2014).

Read-outs that look alike come from different tables or passages of the source.

The conditions of series [1]: administration to lactating women.
Assay in series [2]: not given
This is another data set of the same source.

For series [3] the following is noted: stored at 15-25° C. before and after reconstitution.
For series [4] the following is noted: 600 MBq, common bone scan.
The conditions of series [5]: prepared product.

As for `N=C(N)NCc1cccc([131I])c1` [^123I-metaiodobenzylguanidine, metaiodobenzylguanidine], the “breast feeding interruption advised” value in series [1] is recorded as “brief interruption (hours to days)”.
Turning to `[99Tc].[C-]#[N+]CC(C)(C)OC.[C-]#[N+]CC(C)(C)OC.[C-]#[N+]CC(C)(C)OC.[C-]#[N+]CC(C)(C)OC.[C-]#[N+]CC(C)(C)OC.[C-]#[N+]CC(C)(C)OC` [^99mTc-Sestamibi, technetium-99m-methoxyisobutylisonitrile], under “at exercise”, the Myocardial uptake is on record as 1.5 % of the injected dose. Also, under “at rest”, the Myocardial uptake was 1.2 % of the injected dose. In series [2] (in 48 hours), the “cleared through the feces” value is reported as “approximately thirty-three”. In addition, in series [2] (in vivo), the “excreted in the urine” value was “Twenty-seven”, the “major pathway for clearance” value was “hepatobiliary system” and the metabolism result was “excreted without any evidence of metabolism”. In addition, the “time for use after preparation” value in series [3] was ≤ 6 h.
With `O=P(O)(O)CP(=O)(O)O` [^99mTc-MDP, medronate, metal not drawn], the effective dose in series [4] was 3 mSv.
Regarding `[Na+].[O]=[Tc](=[O])(=[O])[O-]` [^99mTc-pertechnetate, Sodium pertechnetate], the “breast feeding interruption advised” value in series [1] is given as “brief interruption (hours to days)”.
`[I-].[Na+]` [^123I-sodium iodide, sodium iodide]: the “breast feeding interruption advised” value in series [1] is recorded as “Complete cessation”.
Regarding “Technetium Tc 99m Arcitumomab (CEA-Scan)”, the shelf life in series [5] is ≤ 4 h.
For `[Cl][201Tl]` [^201Tl, Tl-201-thallous chloride], in series [1], the “breast feeding interruption advised” value is recorded as “brief interruption (hours to days)”.
As for `O=C([O-])CC(O)(CC(=O)[O-])C(=O)[O-].[Ga+3]` [^67Ga-citrate, Gallium Citrate], the “breast feeding interruption advised” value in series [1] is “Complete cessation”.
